{"source": "patent US20210393621A1", "about": "“COMBINATION SEROTONIN SPECIFIC REUPTAKE INHIBITOR AND SEROTONIN 1A RECEPTOR PARTIAL AGONIST FOR REDUCING L-DOPA-INDUCED DYSKINESIA” (The Research Foundation for The State University of new York, priority 2018, published 2021)", "key": {"[1]": {"system": "6-OHDA-lesioned hemi-parkinsonian rats", "experiment": "Experiment 1: AIMs, established LID in L-DOPA-primed hemi-parkinsonian rats", "assay_type": "in vivo, Sprague-Dawley rats"}, "[2]": {"system": "6-OHDA-lesioned hemi-parkinsonian rats", "experiment": "Experiment 1: forepaw adjusting steps (FAS)", "assay_type": "in vivo, Sprague-Dawley rats", "excerpt": "(§1) Conti et al., 2014). […] Forepaw adjusting steps (FAS): The FAS test is a measure of forelimb akinesia performed according to previous protocols (Bishop et al., 2012; Chang et al., 1999). Data are presented as mean percent intact stepping where the sum of the total steps with the lesioned forepaw was divided by the total steps with the unlesioned forepaw multiplied by 100. Lower percent intact scores indicate greater forelimb akinesia. Prior to baseline, rats received 2 acclimation periods. On-treatment FAS was performed 60 min post-L-DOPA."}, "[3]": {"system": "6-OHDA-lesioned hemi-parkinsonian rats", "experiment": "Experiment 2: forepaw adjusting steps (FAS)", "assay_type": "in vivo, Sprague-Dawley rats", "conditions": "Vilazodone 10 mg/kg + L-DOPA 6 mg/kg; by Day 15", "description": "as §1, with “[…].). All VZD injections were administered 5 min prior to LD. […] AIMs values expressed are the median sum of axial, limb, and orolingual (ALO) behaviors. […] Values are expressed as medians [±median absolute difference (M.A.D.)].” for “Conti et al., 2014).”"}, "[4]": {"system": "L-DOPA-primed 6-OHDA-lesioned rats", "experiment": "Experiment 3: AIMs with 5-HT1AR or 5-HT1BR antagonist before Vilazodone and L-DOPA", "assay_type": "in vivo, Sprague-Dawley rats", "method": "In each study, the LD-primed rats received (FIG. 4A) the 5-HT1AR antagonist WAY100635 [WAY; 0 or 0.5 mg/kg, s.c.] or (FIG. 4B) the 5-HT1BR antagonist NAS [NAS; 0 or 0.3 mg/kg, s.c.]) 5 min prior to VZD (0 or 10 mg/kg, s.c.) injected 5 min prior to LD (6 mg/kg, s.c.) in a within-subjects counterbalanced design. ALO AIMs were evaluated and are shown for every 10 min for 3 h after LD administration.\nAll 6-OHDA-lesioned rats (n=17) were tested on the FAS prior to treatment regimens to establish baseline motor performance. Three-weeks post-surgery, all rats were primed with L-DOPA (6 mg/kg, s.c.) for 14 days.\nBeginning 10 min post-treatment, a trained and blinded observer assigned a severity score (0-4) to each of the ALO AIMs based on 1 min ratings every 10 min for 3 h: 0, not present; 1, present from 1-29 s; 2, present 30-59 s; 3, present all 60 s, but interruptible by a cylinder tap; 4, present 60 s and not interruptible by a cylinder tap."}, "[5]": {"system": "unilateral 6-OHDA-lesioned rats", "experiment": "Example 2: L-DOPA-induced dyskinesias (LIDs) scoring", "assay_type": "in vivo, Sprague-Dawley rats", "conditions": "pretreatment with vilazodone 10 mg/kg or escitalopram 12.5 mg/kg before L-DOPA 5 mg/kg, 2 weeks; hydrochloride", "description": "6-OHDA-induced dopaminergic lesions: Adult male Sprague-Dawley rats were randomly assigned to groups receiving either a 6-OHDA or sham lesion. […] [[…] 2019]. […] Rats were treated for 5 consecutive days/week (Mon-Fri), for 2 weeks. […] All rats were evaluated three times per week for the presence of L-DOPA-induced dyskinesias (LIDs) (Wed-Fri) and once for the stepping test (Tue). […] Scores were given over 1 min epochs and classified as axial, limb, orolingual and locomotive. […] Arrows=inhibitory input; dashed arrows=compromised function. The severity of each LID was scored using a standard scale. Each dyskinetic behavior was given an intensity and frequency score, which were then multiplied. The average sum of the products of each LID was determined in each animal."}, "[6]": {"molecular_target": "5-HT2A (Homo sapiens, UniProt P28223)", "sequence (P28223 whole entry, species assumed)": "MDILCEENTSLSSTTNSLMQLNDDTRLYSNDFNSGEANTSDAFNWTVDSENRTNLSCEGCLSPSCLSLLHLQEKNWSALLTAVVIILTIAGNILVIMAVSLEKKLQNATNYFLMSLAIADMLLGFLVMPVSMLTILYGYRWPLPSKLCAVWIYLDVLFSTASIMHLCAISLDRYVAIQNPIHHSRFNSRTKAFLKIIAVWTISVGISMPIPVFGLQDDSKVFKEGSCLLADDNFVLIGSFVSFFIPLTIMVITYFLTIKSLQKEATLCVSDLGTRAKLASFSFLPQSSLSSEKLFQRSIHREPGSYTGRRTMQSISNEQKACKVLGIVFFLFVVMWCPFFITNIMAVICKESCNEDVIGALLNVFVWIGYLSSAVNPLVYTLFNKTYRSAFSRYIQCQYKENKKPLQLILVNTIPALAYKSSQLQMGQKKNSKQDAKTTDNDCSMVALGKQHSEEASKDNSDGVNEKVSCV", "conditions": "cited from earlier work"}, "[7]": {"molecular_target": "norepinephrine transporter (NET) (Homo sapiens, UniProt P23975)", "sequence (P23975 whole entry)": "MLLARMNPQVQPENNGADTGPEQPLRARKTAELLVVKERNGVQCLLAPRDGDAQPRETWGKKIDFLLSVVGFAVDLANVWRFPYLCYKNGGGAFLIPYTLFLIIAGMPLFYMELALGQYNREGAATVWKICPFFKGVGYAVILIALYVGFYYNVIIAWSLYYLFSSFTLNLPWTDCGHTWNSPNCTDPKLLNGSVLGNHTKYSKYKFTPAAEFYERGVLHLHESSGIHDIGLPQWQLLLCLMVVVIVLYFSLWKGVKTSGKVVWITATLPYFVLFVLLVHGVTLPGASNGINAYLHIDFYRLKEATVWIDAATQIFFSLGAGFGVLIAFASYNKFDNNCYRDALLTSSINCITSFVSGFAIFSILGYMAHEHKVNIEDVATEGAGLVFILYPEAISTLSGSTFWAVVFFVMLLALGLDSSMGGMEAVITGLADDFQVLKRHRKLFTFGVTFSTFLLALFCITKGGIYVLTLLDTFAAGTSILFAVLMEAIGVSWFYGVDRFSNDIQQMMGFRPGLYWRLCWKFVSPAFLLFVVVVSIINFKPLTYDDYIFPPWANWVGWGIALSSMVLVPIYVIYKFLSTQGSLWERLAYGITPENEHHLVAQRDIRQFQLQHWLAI", "conditions": "read-out: Ki for NET (norepinephrine reuptake site); cited from earlier work"}, "[8]": {"molecular_target": "dopamine transporter (DAT) (Homo sapiens, UniProt Q01959)", "sequence (Q01959 whole entry, species assumed)": "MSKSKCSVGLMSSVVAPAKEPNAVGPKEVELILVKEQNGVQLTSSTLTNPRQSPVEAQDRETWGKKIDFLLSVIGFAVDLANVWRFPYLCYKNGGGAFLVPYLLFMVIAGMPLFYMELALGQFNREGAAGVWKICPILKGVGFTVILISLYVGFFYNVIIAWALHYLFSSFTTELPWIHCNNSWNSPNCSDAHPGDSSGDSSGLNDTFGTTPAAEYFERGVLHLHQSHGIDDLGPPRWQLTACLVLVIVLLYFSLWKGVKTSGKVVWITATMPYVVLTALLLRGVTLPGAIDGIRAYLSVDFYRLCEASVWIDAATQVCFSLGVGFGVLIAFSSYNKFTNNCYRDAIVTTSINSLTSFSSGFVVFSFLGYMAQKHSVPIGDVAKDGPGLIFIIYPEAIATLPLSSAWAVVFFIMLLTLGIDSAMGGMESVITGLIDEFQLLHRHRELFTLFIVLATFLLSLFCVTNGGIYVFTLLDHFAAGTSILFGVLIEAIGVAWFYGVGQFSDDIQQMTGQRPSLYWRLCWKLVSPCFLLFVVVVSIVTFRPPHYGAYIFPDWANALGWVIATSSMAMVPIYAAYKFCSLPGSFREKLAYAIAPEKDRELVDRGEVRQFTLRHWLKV", "conditions": "read-out: Ki for DAT (dopamine reuptake site); cited from earlier work"}, "[9]": {"system": "extracellular 5-HT, dopamine and norepinephrine", "conditions": "cited from earlier work; for maximal increase of extracellular 5-HT: rats, acute systemic injection, measured 3 h after injection"}, "[10]": {"system": "striatal c-Fos, PPD, PPE, PPT and 5-HT1AR mRNA", "experiment": "Experiment 2: real-time RT-PCR of striatal gene expression"}, "[11]": {"conditions": "lesioned striata, VZD 0, 10 or 20 mg/kg + L-DOPA 6 mg/kg daily, day 23, 60 min post-injection"}}, "note": "“Also recorded” adds a separate entry of the source. Where two headings read alike, the source gives them in different places."}
{"smiles": "Cl.N#Cc1ccc2[nH]cc(CCCCN3CCN(c4ccc5oc(C(N)=O)cc5c4)CC3)c2c1", "note": "[Vilazodone, 5-{4-[4-(5-cyano-3-indolyl)-butyl]-1-piperazinyl}-benzofuran-2-carboxamide hydrochloride]", "values": [{"measurement": "anti-LID efficacy, high versus low dose", "setting": "[1]; 20 mg/kg vs 10 mg/kg, initially, dissipated after the first week", "value": "greater anti-LID efficacy than the lower dose"}, {"measurement": "ALO AIMs, established LID", "setting": "[1]; VZD 10 or 20 mg/kg s.c. 5 min prior to L-DOPA 6 mg/kg, vs Vilazodone (0 mg/kg)+L-DOPA (6 mg/kg), from first day throughout treatment", "value": "dramatically reduced AIMs"}, {"measurement": "side effects, like 5-HT syndrome", "setting": "[1]; chronic Vilazodone + L-DOPA in rats, any time point", "value": "weren't observed at any time point"}, {"measurement": "reduction of development and expression of LID compared with Amantadine", "setting": "[1]; validated rodent model", "value": "more effective than Amantadine"}, {"measurement": "FAS motor performance versus baseline", "setting": "[2]; L-DOPA-primed rats, VZD 0, 10 or 20 mg/kg + L-DOPA 6 mg/kg, 60 min post-L-DOPA", "value": "improvements in rats treated with Vilazodone emerged 7 days later"}, {"measurement": "FAS stepping versus Vilazodone (0 mg/kg)+L-DOPA (6 mg/kg)", "setting": "[2]; VZD 20 mg/kg, Day 29, effect transient", "value": "depressed stepping"}, {"measurement": "FAS, pro-motor effects versus Vilazodone (0)+L-DOPA (6 mg/kg)", "setting": "[3]", "value": "significantly enhanced the pro-motor effects of L-DOPA"}, {"measurement": "ALO AIMs, 5-HT1BR study", "setting": "[4]; NAS-181 0 or 3.0 mg/kg, then VZD 0 or 10 mg/kg, then L-DOPA 6 mg/kg, s.c.", "value": "significantly reduced ALO AIMs"}, {"measurement": "LID duration, time course", "setting": "[4]; VZD 10 mg/kg + L-DOPA 6 mg/kg", "value": "little effect on LID duration"}, {"measurement": "peak dyskinesia, time course", "setting": "[4]; VZD 10 mg/kg + L-DOPA 6 mg/kg", "value": "reduced peak dyskinesia"}, {"measurement": "summed ALO AIMs, 5-HT1AR study", "setting": "[4]; WAY100635 0 or 0.5 mg/kg, then VZD 0 or 10 mg/kg, then L-DOPA 6 mg/kg, s.c.", "value": "significantly reduced ALO AIMs"}, {"measurement": "LIDs score / severity", "setting": "[5]", "value": "most significant effect on attenuating LIDs; also recorded: significantly reduced LIDs"}, {"measurement": "affinity for 5-HT2A", "setting": "[6]", "value": "negligible affinity"}, {"measurement": "Ki", "setting": "[7]", "value": 56, "unit": "nM"}, {"measurement": "Ki", "setting": "[8]", "value": 37, "unit": "nM"}, {"measurement": "maximal increase of extracellular 5-HT", "setting": "[9]; frontal cortex", "value": 527, "unit": "%"}, {"measurement": "extracellular dopamine and norepinephrine", "setting": "[9]; rat brain, vilazodone 1 and 10 mg/kg", "value": "caused no change"}, {"measurement": "maximal increase of extracellular 5-HT", "setting": "[9]; ventral hippocampus", "value": 558, "unit": "%"}, {"measurement": "striatal PPT mRNA", "setting": "[10]; FIG. 6B", "value": "significantly reduced it"}, {"measurement": "striatal 5-HT1AR mRNA", "setting": "[10]; day 23", "value": "did not affect striatal 5-HT1AR mRNA"}, {"measurement": "striatal PPE mRNA", "setting": "[10]; lesioned striata, L-DOPA 6 mg/kg, Vilazodone 20 mg/kg", "value": "modestly, though significantly reduced"}, {"measurement": "striatal PPD mRNA", "setting": "[10]; [11]", "value": "dose-dependently attenuated"}, {"measurement": "striatal c-Fos mRNA", "setting": "[10]; [11]", "value": "diminished"}]}
